Source: US11179384B2, “Treatment of nonalcoholic fatty liver disease” (TAKEDA GMBH, priority 2016, dated 2021)

Legend:
ob/ob mice = assay: Insulin tolerance test (insulin sensitivity) in ob/ob mice; type: in vivo; settings: 29 days
Description: Male 5 weeks old ob/ob mice (B6.Cg-Lep^ob/J, genotype: Lep^ob/Leb^ob) and age-matched male lean mice (B6.Cg-Lep^ob/J, genotype: Lep^ob/+ * or Leb^+/+) were purchased from Charles River Laboratories, Japan Inc. All mice were fed with a normal chow (CE-2, CLEA Japan) and allowed free access to tap water. The animals were housed in a room with controlled temperature (23±1° C.), humidity (55±10%) and lightning (lights from 07:00 to 19:00). All experiments were approved by the Institutional Animal Care and Use Committee of Shonan Research Center, Takeda Pharmaceutical Company ltd (Japan).
All mice were housed individually in animal cages and used for the study at 7 weeks of age after 2 weeks of acclimation period. Blood samples were collected from the tail vein. Heparin and 2%-EDTA were used to inhibit the coagulation of the blood. Plasma was obtained by centrifugation. Plasma levels of glucose were measured using the automatic analyzer 7180 (Hitachi, Japan). Vehicle (0.5 w/v % methylcellulose, 10 ml/kg) and Compound A (3 and 10 mg/kg suspended in 0.5% methylcellulose solution) were orally administered once daily. After 28 days of administration, the insulin tolerance test (ITT) was performed. Mice were fasted for 6 h and then intraperitoneally administered with insulin (Novolin R, NovoNordisk) at a dose of 0.5 unit/5 ml/kg. Blood samples were collected from tail vein before and 15, 30, 60 and 120 min after the insulin administration. Plasma glucose (PG) level and ITT were measured using the method described above. […] AUC0-120 min of plasma glucose level was calculated using the following formula; [{(0 min PG)+(15 min PG)}×15+{(15 min PG)+(30 min PG)}×15+{(30 min PG)+(60 min PG)}×30+{(60 min PG)+[…]}×60]/2.
Data are expressed as mean and standard deviation (n=8 for ob/ob mice and n=5 for lean mice). The dose response trends of Compound A were assessed by one-tailed Williams' test or Shirley-Williams test. […] For evaluation of the effects of pioglitazone, statistical differences between vehicle and pioglitazone treated groups were analyzed with Student's t-test or Aspin-Welsh test. […]

Homozygous LDLR-KO mice [1] = assay: Prophylactic effects in a mouse model of NASH (LDLR-KO mice, mCDAA diet); type: in vivo; settings: LDLR-KO mice on mCDAA diet, 1, 3 and 10 mg/kg p.o. QD for 7 weeks
Description: Prophylactic effects of Compound A on parameters such as a) hepatic fibrosis formation, b) hepatic triglyceride formation and c) plasma ALT reduction were examined in a rodent model of NASH.
Homozygous low-density lipoprotein receptor knockout (LDLR-KO) mice were fed with chow or modified choline deficient, L-amino acid-defined (mCDAA) diet (A08111307, Research Diets, USA). After 1 week under chow or mCDAA diet, the mice were orally dosed with Compound A (1, 3 and 10 mg/5 ml/kg, QD, n=10; suspension in 0.5 w/v % methylcellulose suspension) for 7 weeks.

[2] = Phase 1 clinical studies (single rising dose and multiple rising dose); type: in vivo, humans
Excerpt: Compound A differs from other development candidates intended for the treatment of NAFLD/NASH in that it exerts its effects via anti-inflammatory, anti-fibrotic and anti-steatotic mode of action. […] It is furthermore believed that all of these effects observed in in vitro and animal experiments will translate in corresponding effects in the clinical setting in humans.

Homozygous LDLR-KO mice [3] = assay: Therapeutic effects in a mouse model of NASH (LDLR-KO mice, mCDAA diet, after fibrosis formation); type: in vivo; settings: 6 weeks mCDAA diet then 4 and 8 mg/kg p.o. QD for 10 weeks (therapeutic)
Description: To evaluate therapeutic potential of Compound A, effects of Compound A were additionally examined after hepatic fibrosis formation. Homozygous LDLR-KO mice were fed with chow or mCDAA diet (A08111307, Research Diets, USA). After 6 week under chow or mCDAA diet, the mice were orally dosed with Compound A (4, and 8 mg/5 mL/kg, QD, n=12; suspension in 0.5 w/v % methylcellulose solution) for 10 weeks.

Male C57BL/6J mice (DIO) = assay: Body weight, fat and lean mass, 4 weeks treatment in diet-induced obese (DIO) mice; type: in vivo; settings: for Body weight change from pretreatment (Day 0): mean±S.D., vehicle +3.8%
Description: Male C57BL/6J mice were obtained from CLEA Japan, Inc. The mice were fed High fat diet D12451 (Research diets, Inc) from 5 week to 54-week old and water ad libitum.
All mice were housed individually in animal cages and used for the study after 2 weeks of acclimation period. Animal groups (n=7) were treated with either vehicle (0.5 w/v % methylcellulose, p.o.) or Compound A (1 mg/kg or 3 mg/kg, p.o. suspension in 0.5 w/v % methylcellulose solution) in the evening once a day for 4 weeks from 50 weeks of age. Body weight was measured 2 or 3 times per week. Regarding body composition fast mass and lean mass were measured.
Body composition (fat mass and lean mass) was measured by Echo-MRI-900 (ALOKA Japan).
All data are presented as mean±S.D. For evaluation of the effects of Compound A, statistical significances between vehicle (p.o.) and Compound A treated groups were analyzed with one-tailed Williams' test or Shirley-Williams test when the variances among the groups were homogeneous or heterogeneous, respectively. The p-values less than 0.025 were considered statistically significant in one-tailed Williams' test or Shirley-Williams test. Body weight change from pretreatment (Day 0) was calculated using the following formula: [(BW-BW at Day 0)/BW at Day 0]×100.

[4] = 1 mg/kg p.o. once a day for 4 weeks
[5] = 1 and 3 mg/kg p.o. once a day for 4 weeks

CCOc1cc2c(cc1OC)C(c1ccc(=O)n(C)c1)=N[C@@H]1CC[C@@H](O)C[C@H]21 [Compound A, 5-((2R,4aR,10bR)-9-Ethoxy-2-hydroxy-8-methoxy-1,2,3,4,4a,10b-hexahydro-phenanthridin-6-yl)-1-methyl-1H-pyridin-2-one]
insulin-stimulated plasma glucose (PG) reduction at 60 min (ob/ob mice; 10 mg/kg/day p.o., ITT insulin 0.5 unit/kg i.p., vs vehicle): significantly enhanced
AUC of PG level (AUC0-120 min) (ob/ob mice; 3 and 10 mg/kg/day p.o., ITT, statistical significance at 10 mg/kg/day): dose-dependently decreased
declines in plasma glucose level at 60 min from the zero time value (ob/ob mice; 3 and 10 mg/kg/day p.o., ITT, vs vehicle): significantly greater
Body weight (Homozygous LDLR-KO mice [1]): slightly decreased
Hepatic triglyceride (TG) content (Homozygous LDLR-KO mice [1]): significantly reduced
Liver weight (Homozygous LDLR-KO mice [1]): dose dependently decreased
epididymal white adipose tissue (surrogate for body fat mass) (Homozygous LDLR-KO mice [1]): dose dependently decreased
food intake (Homozygous LDLR-KO mice [1]): no change
plasma ALT levels (Homozygous LDLR-KO mice [1]): significantly reduced
hepatic fibrosis area (Homozygous LDLR-KO mice [1]; started after 1 week of diet): dose-dependent reduction
PDE4 inhibitor specific adverse events (diarrhea, nausea) ([2]; Phase 1, single dose 0.05 to 0.85 mg, multiple dose 0.05 to 0.8 mg 7 days, 0.35 and 0.8 mg up to 14 days): no PDE4 inhibitor specific adverse events
safety and pharmacokinetic profile ([2]; Phase 1 single rising dose and multiple rising dose studies): very favorable
hepatic TG content (Homozygous LDLR-KO mice [3]): significantly reduced from the initial value
hepatic fibrosis area (Homozygous LDLR-KO mice [3]): reduction
body weight reduction corrected with vehicle-treated body weight change (Male C57BL/6J mice (DIO); [4]): −8.7±3.5%
Body weight change from pretreatment (Day 0) (Male C57BL/6J mice (DIO); [4]): −4.9±3.5%
Body weight change from pretreatment (Day 0) (Male C57BL/6J mice (DIO); 3 mg/kg p.o. once a day for 4 weeks): −17.2±4.0%
body weight during the 4-week study period (Male C57BL/6J mice (DIO); 1 and 3 mg/kg p.o. once a day): durable body weight lowering effect
fat mass (Echo-MRI) (Male C57BL/6J mice (DIO); [5]): dose dependently and significantly decreased
lean mass (Echo-MRI) (Male C57BL/6J mice (DIO); [5]): without affecting
